Test results as given in patent EP0745595A1, “3-(3-Aryloxyphenyl)-1-(substituted methyl)-s-triazine-2,4,6-oxo or thiotrione herbicidal agents” (American Cyanamid Company, priority 1995, dated 1996).

Tests used:
Type in all cases: in vivo
[1] = system: ABUTILON THEOPHRASTI, MEDIC.; test: Postemergence herbicidal evaluation, ABUTH (Velvetleaf)
Protocol: (§1) In the tests, seedling plants are grown in jiffy flats for about two weeks. The test compounds are dispersed in 50/50 acetone/water mixtures containing 0.5% TWEEN®20, a polyoxyethylene sorbitan monolaurate surfactant of Atlas Chemical Industries, […] to the plants through a spray nozzle operating at 40 psi for a predetermined time. After spraying, the plants are placed on greenhouse benches and are cared for in the usual manner, commensurate with conventional greenhouse practices. From four to five weeks after treatment, the seedling plants are examined and rated according to the rating system set forth below. Where more than one test is involved for a given compound, the data are averaged.
(§2) Plant species employed in these evaluations are reported by header abbreviation, common name and scientific name.
(§3) Results of herbicide evaluation are expressed on a rating scale (0-9). The scale is based upon a visual observation of plant stand, vigor, malformation, size, chlorosis and overall plant appearance as compared with a control.

[2] = system: AMBROSIA ARTEMISIIFOLIA, L.; test: Postemergence herbicidal evaluation, AMBEL (Ragweed, Common)
Protocol: as §1, §2, §3

[3] = system: CASSIA OBTUSIFOLIA, L.; test: Postemergence herbicidal evaluation, CASOB (Sicklepod); parameters: key to CASOB rating / Herbicidal effect rating, CASOB / CASOB: 0-9 visual rating scale vs untreated control
Protocol: (§4) In the tests, seedling plants are grown in jiffy flats for about two weeks. The test compounds are dispersed in 50/50 acetone/water mixtures containing 0.5% TWEEN®20, a polyoxyethylene sorbitan monolaurate surfactant of Atlas Chemical Industries, in sufficient quantities to provide the equivalent of about 0.125 kg to 0.500 kg per hectare of active compound when applied to the plants through a spray nozzle operating at 40 psi for a predetermined time. After spraying, the plants are placed on greenhouse benches and are cared for in the usual manner, commensurate with conventional greenhouse practices. From four to five weeks after treatment, the seedling plants are examined and rated according to the rating system set forth below. Where more than one test is involved for a given compound, the data are averaged.
as §2, §3

[4] = system: CHENOPODIUM ALBUM, L.; test: Postemergence herbicidal evaluation, CHEAL (Lambsquarters, Common)
Protocol: as §1, §2, §3

[5] = system: IPOMOEA SPP.; test: Postemergence herbicidal evaluation, IPOSS (Morningglory spp.)
Protocol: as §1, §2, §3

[6] = system: GALIUM APARINE; test: Postemergence herbicidal evaluation, GALAP (Galium); parameters: key to GALAP rating / Herbicidal effect rating, GALAP / GALAP: 0-9 visual rating scale vs untreated control
Protocol: as §4, §2, §3

[7] = system: ECHINOCHLOA CRUS-GALLI, (L) BEAU; test: Postemergence herbicidal evaluation, ECHCG (Barnyardgrass); parameters: key to ECHCG rating / Herbicidal effect rating, ECHCG / ECHCG: 0-9 visual rating scale vs untreated control
Protocol: as §4, §2, §3

[8] = system: SETARIA VIRIDIS, (L) BEAU; test: Postemergence herbicidal evaluation, SETVI (Foxtail, Green); parameters: key to SETVI rating / Herbicidal effect rating, SETVI / SETVI: 0-9 visual rating scale vs untreated control
Protocol: as §4, §2, §3

[9] = system: GLYCINE MAX(L) MERR. CV. WILLIAMS; test: Postemergence herbicidal evaluation, GLXMAW (Soybean, Williams); parameters: key to GLXMAW rating / Herbicidal effect rating, GLXMAW / GLXMAW: 0-9 visual rating scale vs untreated control
Protocol: as §4, §2, §3

[10] = system: ORYZA SATIVA, L. TEBONNET; test: Postemergence herbicidal evaluation, ORYSAT (Rice, Tebonnet); parameters: key: 0-9 visual rating scale vs untreated control
Protocol: as §4, §2, §3

[11] = system: TRITICUM AESTIVUM, CV. APOLLO; test: Postemergence herbicidal evaluation, TRZAWO (Wheat, Winter, CV. APOLLO)
Protocol: In the tests, seedling plants are grown in jiffy flats for about two weeks. The test compounds are dispersed in 50/50 acetone/water mixtures containing 0.5% TWEEN®20, a polyoxyethylene sorbitan monolaurate surfactant of Atlas Chemical Industries, […] through a spray nozzle operating at 40 psi for a predetermined time. After spraying, the plants are placed on greenhouse benches and are cared for in the usual manner, commensurate with conventional greenhouse practices. From four to five weeks after treatment, the seedling plants are examined and rated according to the rating system set forth below. Where more than one test is involved for a given compound, the data are averaged.
as §2, §3

[12] = system: ZEA MAYS L.; test: Postemergence herbicidal evaluation, ZEAMX (Corn, Field)
Protocol: as §1, §2, §3

[13] = system: CHENOPODIUM ALBUM, L.; test: Preemergence herbicidal evaluation, CHEAL (Lambsquarters, Common);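 note: higher means more injury with 8 approaching complete kill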
From the text: as §3
The preemergence herbicidal activity of the test compounds of the present invention is exemplified by the following tests in which the seeds of a variety of monocotyledonous and dicotyledonous plants are separately mixed with potting soil and planted on top of approximately one inch of soil in separate pint cups. […] The treated cups are then placed on greenhouse benches, watered and cared for in accordance with conventional greenhouse procedures. From four to five weeks after treatment, the tests are terminated and each cup is examined and rated according to the rating system provided in Example 40.
The compounds evaluated are reported by compound number given in Example 40.

[14] = system: ORYZA SATIVA, L. TEBONNET; test: Rice tolerance to post-transplant applications under flooded paddy conditions, ORYSAT (Rice, Tebonnet); details: post-transplanted rice
Protocol: as §3
The tolerance of transplanted rice to post-transplanted herbicide applications is determined as follows: two ten-day-old rice seedlings (CV. Tebonnet) are transplanted into a silt loam soil in 32 oz. plastic containers with a diameter of 10.5 cm and no drainage holes. After transplanting the containers are flooded and the water level is maintained at 1.5 to 3 cm above the soil surface. […] The treated containers are placed on greenhouse benches, watered such that the water level is maintained as stated above, and cared for according to normal greenhouse procedures. Three to four weeks after treatment the test is terminated and each container is examined and herbicidal effect rated according to the rating system provided in Example 40. The compounds evaluated are reported by compound number given in Example 40.
Plant species employed in this example are reported by header abbreviation, common name and scientific name.

Cn1c(=O)[nH]c(=O)n(-c2cc(Oc3ccc(C(F)(F)F)cc3Cl)ccc2[N+](=O)[O-])c1=O [B, reference compound]
Herbicidal effect rating, ABUTH ([1]; 0.031 kg/ha): 4.5 | Herbicidal effect rating, ABUTH ([1]; 0.063 kg/ha): 7.0 | Herbicidal effect rating, ABUTH ([1]; 0.125 kg/ha): 7.0 | Herbicidal effect rating, ABUTH ([1]; 0.250 kg/ha): 9.0 | Herbicidal effect rating, AMBEL ([2]; 0.031 kg/ha): 3.0 | Herbicidal effect rating, AMBEL ([2]; 0.063 kg/ha): 4.5 | Herbicidal effect rating, AMBEL ([2]; 0.125 kg/ha): 8.0 | Herbicidal effect rating, AMBEL ([2]; 0.250 kg/ha): 7.0 | Herbicidal effect rating, CASOB ([3]; 0.031 kg/ha): 3.5 | Herbicidal effect rating, CASOB ([3]; 0.063 kg/ha): 4.0 | Herbicidal effect rating, CASOB ([3]; 0.125 kg/ha): 8.0 | Herbicidal effect rating, CASOB ([3]; 0.250 kg/ha): 5.5 | Herbicidal effect rating, CHEAL ([4]; 0.031 kg/ha): 2.0 | Herbicidal effect rating, CHEAL ([4]; 0.063 kg/ha): 2.5 | Herbicidal effect rating, CHEAL ([4]; 0.125 kg/ha): 7.0 | Herbicidal effect rating, CHEAL ([4]; 0.250 kg/ha): 4.5 | Herbicidal effect rating, IPOSS ([5]; 0.031 kg/ha): 8.0 | Herbicidal effect rating, IPOSS ([5]; 0.063 kg/ha): 9.0 | Herbicidal effect rating, IPOSS ([5]; 0.125 kg/ha): 8.0 | Herbicidal effect rating, IPOSS ([5]; 0.250 kg/ha): 9.0 | Herbicidal effect rating, GALAP ([6]; 0.031 kg/ha): 2.0 | Herbicidal effect rating, GALAP ([6]; 0.063 kg/ha): 2.5 | Herbicidal effect rating, GALAP ([6]; 0.125 kg/ha): 7.0 | Herbicidal effect rating, GALAP ([6]; 0.250 kg/ha): 4.5 | Herbicidal effect rating, ECHCG ([7]; 0.031 kg/ha): 1.0 | Herbicidal effect rating, ECHCG ([7]; 0.063 kg/ha): 2.0 | Herbicidal effect rating, ECHCG ([7]; 0.125 kg/ha): 3.0 | Herbicidal effect rating, ECHCG ([7]; 0.250 kg/ha): 3.5 | Herbicidal effect rating, SETVI ([8]; 0.031 kg/ha): 0.5 | Herbicidal effect rating, SETVI ([8]; 0.063 kg/ha): 1.0 | Herbicidal effect rating, SETVI ([8]; 0.125 kg/ha): 0.0 | Herbicidal effect rating, SETVI ([8]; 0.250 kg/ha): 2.0 | Herbicidal effect rating, GLXMAW ([9]; 0.031 kg/ha): 3.3 | Herbicidal effect rating, GLXMAW ([9]; 0.063 kg/ha): 4.0 | Herbicidal effect rating, GLXMAW ([9]; 0.125 kg/ha): 4.0 | Herbicidal effect rating, GLXMAW ([9]; 0.250 kg/ha): 4.3 | Herbicidal effect rating, ORYSAT ([10]; 0.031 kg/ha): 4.0 | Herbicidal effect rating, ORYSAT ([10]; 0.063 kg/ha): 4.5 | Herbicidal effect rating, ORYSAT ([10]; 0.125 kg/ha): 5.5 | Herbicidal effect rating, ORYSAT ([10]; 0.250 kg/ha): 5.0 | Herbicidal effect rating, TRZAWO ([11]; 0.031 kg/ha): 3.0 | Herbicidal effect rating, TRZAWO ([11]; 0.063 kg/ha): 3.0 | Herbicidal effect rating, TRZAWO ([11]; 0.125 kg/ha): 4.0 | Herbicidal effect rating, TRZAWO ([11]; 0.250 kg/ha): 4.3 | Herbicidal effect rating, ZEAMX ([12]; 0.031 kg/ha): 3.3 | Herbicidal effect rating, ZEAMX ([12]; 0.063 kg/ha): 3.3 | Herbicidal effect rating, ZEAMX ([12]; 0.125 kg/ha): 4.5 | Herbicidal effect rating, ZEAMX ([12]; 0.250 kg/ha): 4.3 | CHEAL ([13]; Rate 0.031 kg/ha): 4.5 | CHEAL ([13]; Rate 0.063 kg/ha): 4.5 | CHEAL ([13]; Rate 0.125 kg/ha): 4.5 | CHEAL ([13]; Rate 0.250 kg/ha): 4.5 | ORYSAT ([14]; Rate 0.031 kg/ha): 2.0 | ORYSAT ([14]; Rate 0.063 kg/ha): 3.0 | ORYSAT ([14]; Rate 0.125 kg/ha): 2.5 | ORYSAT ([14]; Rate 0.250 kg/ha): 4.5
